Values of other authors, collected in patent publication US20250170078A1, “STABLE PHARMACEUTICAL COMPOSITIONS OF HYDROXYUREA” (Slayback Pharma LLC., priority 2022, published 2025).

How the values were obtained:
[1] = oral
[2] = patients, dose escalation based on blood counts
[3] = not given; remark: listed apart in the source
[4] = on its own

Question: For NC(=O)NO [Hydroxyurea], which “absorption from the gastrointestinal tract” value [1] is on record?
Answer: almost completely absorbed

Question: What about the maximum tolerable dose [2] of the same compound?
Answer: 35 mg/kg/day

Question: What about the “stability in aqueous solutions” value of the same compound?
Answer: poor stability

Question: And the solubility in water [3]?
Answer: freely soluble

Question: And the antimicrobial activity [4]?
Answer: high level of antimicrobial activity
